{"source": "patent US11167133B2", "about": "“Intratumoral modulation therapy” (LONDON HEALTH SCIENCES CENTRE RESEARCH INC., priority 2015, dated 2021)", "key": {"[1]": {"system": "primary patient GBM cells", "experiment": "Annexin V / propidium iodide flow cytometry of apoptotic and dead cells", "type": "cell-based, human", "conditions": "72 h; for combined fraction of apoptotic (annexin+) and dead (annexin+ and PI+) GBM cells: mean±SD, cells from 3 patients", "description": "(§1) This study was approved by the Research Ethics Board at the University of Western Ontario (Approval #17290). GBM specimens were obtained at the time of operative resection and placed immediately into phosphate-buffered saline (PBS) with 0.5% fetal bovine serum (FBS; Life Technologies, Burlington, ON, Canada). The tissue was washed, digested and filtered through a 100-μm cell strainer. Samples were then centrifuged and resuspended in Dulbecco's modified Eagle's medium (DMEM; Wisent Bioproducts, St. Bruno, PQ, Canada) supplemented with 10% FBS, 1% non-essential amino acids and 1% penicillin/streptomycin (Life Technologies) before plating to a 35-mm dish for 30 min to allow blood cells to separate. The upper cell suspension was then transferred to two wells of a 24-well plate, freshly pre-coated with 10 μg/ml poly-L-lysine (Trevigen Inc., Gaithersburg, Md., USA) and incubated at 37° C. with 5% CO2. Cultures were passaged at approximately 80% confluence and split 1:2 using 0.25% trypsin with 0.53 mM ethylenediaminetetraacetic acid (EDTA; Wisent). The medium was changed twice per week. All assays were conducted using GBM cells from cultures at passages 4 through 12.\nGBM cells (2×10^5 cells in 2 ml maintenance DMEM) were transferred to the 35 mm wells in standard 6-well plates and allowed to grow to ˜70% confluence before treatment. A clinical grade, platinum-based reference strip electrode (AD-Tech, Racine, Wis., USA) around the periphery and a stimulating electrode (Medtronic Ltd., Brampton, ON, Canada) in the centre of the well. The electrodes were connected to a waveform generator set to produce monophasic, square-wave pulses of 4 volts, with pulse width of 90 μsec and frequency of 130 Hz. This setting is in the range of that commonly used in clinical neuromodulation treatment for symptoms of movement disorders, such as Parkinson's disease (11). Control wells (i.e. sham-treated) were fitted with electrodes but no current was delivered. Treatment durations between 24-96 h were used to allow adequate time for antitumor effect while avoiding the need for medium change once IMT was initiated. Thus, all intact GBM cells, adherent and floating, contributed to the viability measures described below. GBM cells treated with chemotherapy were plated with DMEM containing temozolomide (50 μM; Sigma Aldrich) in 35 mm wells fitted with the IMT apparatus and received 72 h of concomitant IMT or sham conditions. The 50 μM temozolomide concentration reflects clinically relevant levels corresponding to the in vivo plasma concentration of 150 mg/m2 in the adjuvant phase of GBM treatment (24).\nAn Annexin V Apoptosis Detection Kit with propidium iodide (PI; BioLegend, San Diego, Calif., USA) was used for identification of apoptotic and dead cells, as per the manufacturer's instructions. Cell fractions were analyzed using a Becton Dickinson LSR II SORP flow cytometer running FACSDiva software (BD Biosciences, Mississauga, ON, Canada). Cells were first gated on forward scatter (FSC-) versus side scatter (SSC-) characteristics before excluding doublets using consecutive gating FSC-Area versus FSC-Width and SSC-Area versus SSC-Width plots. The populations of annexin V+/PI−, annexin V+/PI+, annexin V−/PI+ and annexin V−/PI− were then calculated with quadrant gates. Approximately 30,000 single cells were acquired per sample at a maximum event rate of 5,000 events per second. Data were analyzed using FlowJo v 9.6.3 (TreeStar, Inc., Ashland, Oreg., USA)."}, "[2]": {"system": "primary patient GBM cells", "experiment": "MTT cell viability assay", "type": "cell-based, human", "conditions": "72 h, mean±SD, 3 patients", "description": "as §1, with “Cultures were passaged at approximately 80% confluence and split 1:2 using 0.25% trypsin with 0.53 mM ethylenediaminetetraacetic acid (EDTA; Wisent). The medium was changed twice per week. All assays were conducted using GBM cells from cultures at passages 4 through 12.” left out\nPrimary human patient GBM cells (1×10^5 cells in 2 ml maintenance DMEM) were seeded into one 35 mm well equipped with the IMT system and allowed to grow to ˜70% confluence. […] In the IMT-siRNA conditions, IMT was initiated at the time of transfection and maintained for the entire 48 h, after which the extent of target knockdown and GBM cell viability were assessed.\nCell viability was evaluated using the 3-(4,5-dimethylthiazol-2-yl)-2,5-diphenyltetrazolium (MTT) spectral analysis (Sigma Aldrich). […]"}, "[3]": {"conditions": "temozolomide 50 μM combined with IMT (4 V, 130 Hz)"}, "[4]": {"conditions": "temozolomide 50 μM, with concomitant IMT (4 V, 130 Hz), representative scatterplot"}, "[5]": {"conditions": "temozolomide 50 μM, without IMT, representative scatterplot"}}}
{"smiles": "Cn1nnc2c(C(N)=O)ncn2c1=O", "note": "[temozolomide]", "values": [{"measurement": "combined fraction of apoptotic (annexin+) and dead (annexin+ and PI+) GBM cells", "setting": "[1]; single-modality temozolomide 50 μM", "result": "16.9±7.4", "unit": "%"}, {"measurement": "combined fraction of apoptotic (annexin+) and dead (annexin+ and PI+) GBM cells", "setting": "[1]; [3]", "result": "52.4±21.8", "unit": "%"}, {"measurement": "dead cells (annexin and PI-positive), FIG. 4 scatterplot", "setting": "[1]; [4]", "result": 16, "unit": "%"}, {"measurement": "live cells, FIG. 4 scatterplot", "setting": "[1]; [4]", "result": 25.2, "unit": "%"}, {"measurement": "apoptotic cells (annexin-positive), FIG. 4 scatterplot", "setting": "[1]; [5]", "result": 14.1, "unit": "%"}, {"measurement": "dead cells (annexin and PI-positive), FIG. 4 scatterplot", "setting": "[1]; [5]", "result": 9.4, "unit": "%"}, {"measurement": "live cells, FIG. 4 scatterplot", "setting": "[1]; [5]", "result": 76.1, "unit": "%"}, {"measurement": "viability at 50 µM", "setting": "[2]; Homo sapiens, temozolomide 50 μM alone, read-out: viability relative to untreated cells (MTT)", "result": "69.7 ± 11.8", "unit": "%"}, {"measurement": "viability relative to untreated cells (MTT)", "setting": "[2]; [3]", "result": "29.1±3.2", "unit": "%"}]}
